Here are results for 20 compounds from ChEMBL document CHEMBL3739404, “Arylsulfonamide derivatives of (aryloxy)ethylpiperidines as selective 5-HT7receptor antagonists and their psychotropic properties” (Medchemcomm, 2015).

The test system of one assay is HEK293. Briefly: Selectivity ratio of Ki for human 5-HT1A receptor to Ki for human 5-HT7B receptor expressed in HEK293 cells. In kind it is cell-based.
A further assay has as its target D(2) dopamine receptor (Homo sapiens, UniProt P14416). Briefly: Displacement of [3H]-Raclopride from human dopamine D2L receptor expressed in HEK293 cells after 1 hr by microplate reader based assay. Type of assay: cell-based. In general terms: In a radioligand displacement assay an active substance lowers the binding of a labelled ligand.
The target of assay [1] is T1, 5-hydroxytryptamine receptor 1A (Homo sapiens, UniProt P08908).
T1 sequence (P08908 whole entry): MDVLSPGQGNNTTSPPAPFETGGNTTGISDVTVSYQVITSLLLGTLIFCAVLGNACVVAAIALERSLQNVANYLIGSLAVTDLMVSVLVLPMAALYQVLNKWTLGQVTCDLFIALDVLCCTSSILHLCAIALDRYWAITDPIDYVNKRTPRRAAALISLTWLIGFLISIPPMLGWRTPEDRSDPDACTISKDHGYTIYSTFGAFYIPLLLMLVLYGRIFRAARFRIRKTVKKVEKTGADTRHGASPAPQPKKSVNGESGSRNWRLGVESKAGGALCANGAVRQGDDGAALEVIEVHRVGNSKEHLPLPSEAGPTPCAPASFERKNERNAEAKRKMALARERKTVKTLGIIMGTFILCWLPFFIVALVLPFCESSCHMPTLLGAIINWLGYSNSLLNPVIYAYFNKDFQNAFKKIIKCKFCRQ
Briefly: Displacement of [3H]-8-OH-DPAT from human serotonin 5-HT1A receptor expressed in HEK293 cells after 1 hr by microplate reader based assay. In kind it is cell-based.

Assay [2] concerns the target T2, 5-hydroxytryptamine receptor 7 (Homo sapiens, UniProt P34969). Briefly: Antagonist activity at human serotonin 5-HT7B receptor expressed in CHO cells assessed as inhibition of serotonin-induced cAMP production at 1 uM after 30 mins by HTRF assay relative to control. Type of assay: functional, cell-based. (cAMP levels reflect the balance of adenylyl cyclase and phosphodiesterase activity.)

Assay [3] deals with 5-hydroxytryptamine receptor 6 (Homo sapiens, UniProt P50406). Briefly: Displacement of [3H]-LSD from human serotonin 5-HT6 receptor expressed in HEK293 cells after 1 hr by microplate reader based assay. Type of assay: cell-based.
The target of assay [4] is T2, 5-hydroxytryptamine receptor 7. Briefly: Displacement of [3H]-5-carboxyamidotryptamine from human serotonin 5-HT7B receptor expressed in HEK293 cells after 1 hr by microplate reader based assay. Type of assay: cell-based.
In a further assay the test system is Rattus norvegicus. Briefly: Pro-cognitive effect in Sprague-Dawley rat assessed as reduction in PCP-induced memory deficits administered ip 1 hr 15 mins before familiarization phase by novel object recognition test. In kind it is functional, organism-based.
Assay [5] deals with T3, Adrenergic receptor alpha-1 (Rattus norvegicus, UniProt P15823+P23944+P43140).
T3 sequence (P15823 whole entry): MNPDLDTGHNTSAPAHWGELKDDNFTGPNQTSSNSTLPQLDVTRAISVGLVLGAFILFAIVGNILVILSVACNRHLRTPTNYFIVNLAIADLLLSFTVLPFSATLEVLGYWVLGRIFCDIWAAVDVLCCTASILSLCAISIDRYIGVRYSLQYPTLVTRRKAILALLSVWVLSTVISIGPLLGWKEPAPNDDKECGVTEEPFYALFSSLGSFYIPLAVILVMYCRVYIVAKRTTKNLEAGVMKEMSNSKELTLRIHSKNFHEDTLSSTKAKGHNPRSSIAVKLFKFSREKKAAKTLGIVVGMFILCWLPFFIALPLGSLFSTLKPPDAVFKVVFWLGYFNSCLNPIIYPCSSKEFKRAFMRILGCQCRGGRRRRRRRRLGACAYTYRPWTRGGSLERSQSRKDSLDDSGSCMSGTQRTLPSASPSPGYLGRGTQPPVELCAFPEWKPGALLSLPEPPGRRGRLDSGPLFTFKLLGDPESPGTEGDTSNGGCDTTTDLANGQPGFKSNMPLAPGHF
T3 sequence (P23944 whole entry): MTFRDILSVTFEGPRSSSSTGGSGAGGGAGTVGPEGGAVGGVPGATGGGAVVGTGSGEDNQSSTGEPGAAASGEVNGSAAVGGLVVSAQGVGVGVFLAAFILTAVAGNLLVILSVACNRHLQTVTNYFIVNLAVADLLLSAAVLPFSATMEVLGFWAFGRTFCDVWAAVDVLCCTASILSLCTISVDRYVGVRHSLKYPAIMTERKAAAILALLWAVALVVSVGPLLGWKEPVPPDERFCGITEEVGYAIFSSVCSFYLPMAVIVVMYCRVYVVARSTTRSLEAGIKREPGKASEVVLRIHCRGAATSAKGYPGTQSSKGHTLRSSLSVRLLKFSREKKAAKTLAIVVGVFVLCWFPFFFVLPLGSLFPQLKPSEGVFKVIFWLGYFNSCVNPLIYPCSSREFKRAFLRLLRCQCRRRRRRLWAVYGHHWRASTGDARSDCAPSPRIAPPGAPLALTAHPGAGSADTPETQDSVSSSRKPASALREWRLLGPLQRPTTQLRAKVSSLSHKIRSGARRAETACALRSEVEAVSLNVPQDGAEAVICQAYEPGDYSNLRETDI
T3 sequence (P43140 whole entry): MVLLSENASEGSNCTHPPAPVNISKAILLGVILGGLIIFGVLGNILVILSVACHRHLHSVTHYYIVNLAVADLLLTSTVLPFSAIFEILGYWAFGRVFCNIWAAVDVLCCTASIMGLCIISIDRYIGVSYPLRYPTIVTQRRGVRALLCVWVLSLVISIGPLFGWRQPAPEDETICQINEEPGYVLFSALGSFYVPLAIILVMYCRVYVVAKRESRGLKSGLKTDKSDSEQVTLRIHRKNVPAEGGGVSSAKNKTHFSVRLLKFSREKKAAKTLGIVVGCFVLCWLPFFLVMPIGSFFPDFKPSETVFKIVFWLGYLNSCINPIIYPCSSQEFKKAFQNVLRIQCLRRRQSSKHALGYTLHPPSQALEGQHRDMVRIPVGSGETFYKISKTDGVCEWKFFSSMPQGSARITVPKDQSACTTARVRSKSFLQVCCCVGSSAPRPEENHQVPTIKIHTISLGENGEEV
The experiment in a line: Displacement of [3H]-Prazosin from alpha-1 adrenergic receptor in rat cerebral cortex after 1 hr by microplate reader based assay. Type of assay: tissue-based.

The next assay concerns Mus musculus. Briefly: Antidepressant-like activity in albino Swiss mouse assessed as reduction in immobility time at 10 mg/kg, ip dosed 60 mins before test by forced swim test. Type of assay: functional.

The source made the active and inactive calls. The rule behind the calls is not given here.

T2 sequence (P34969 whole entry): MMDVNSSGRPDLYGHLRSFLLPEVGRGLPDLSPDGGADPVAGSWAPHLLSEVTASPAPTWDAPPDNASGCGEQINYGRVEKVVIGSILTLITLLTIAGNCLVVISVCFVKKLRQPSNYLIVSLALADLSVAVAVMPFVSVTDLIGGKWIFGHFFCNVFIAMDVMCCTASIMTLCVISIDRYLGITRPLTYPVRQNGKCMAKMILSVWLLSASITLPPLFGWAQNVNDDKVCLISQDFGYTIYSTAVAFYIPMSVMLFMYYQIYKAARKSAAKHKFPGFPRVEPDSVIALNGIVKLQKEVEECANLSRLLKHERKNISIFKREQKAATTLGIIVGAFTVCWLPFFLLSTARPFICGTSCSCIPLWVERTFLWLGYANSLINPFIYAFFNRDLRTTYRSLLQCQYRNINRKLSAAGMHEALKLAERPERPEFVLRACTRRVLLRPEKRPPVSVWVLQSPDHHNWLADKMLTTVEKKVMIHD
D(2) dopamine receptor, sequence (P14416 whole entry): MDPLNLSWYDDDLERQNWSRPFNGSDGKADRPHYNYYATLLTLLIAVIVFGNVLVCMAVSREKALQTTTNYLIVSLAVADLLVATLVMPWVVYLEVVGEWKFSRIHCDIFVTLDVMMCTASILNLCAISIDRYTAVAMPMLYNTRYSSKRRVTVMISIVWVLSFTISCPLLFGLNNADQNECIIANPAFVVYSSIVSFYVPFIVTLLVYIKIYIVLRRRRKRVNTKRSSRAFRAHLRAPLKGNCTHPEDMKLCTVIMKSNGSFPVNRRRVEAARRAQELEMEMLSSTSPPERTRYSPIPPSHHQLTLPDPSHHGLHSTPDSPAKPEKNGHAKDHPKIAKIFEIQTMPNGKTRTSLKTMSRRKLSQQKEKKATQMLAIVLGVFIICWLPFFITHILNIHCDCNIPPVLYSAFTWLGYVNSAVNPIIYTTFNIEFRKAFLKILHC
5-hydroxytryptamine receptor 6, sequence (P50406 whole entry): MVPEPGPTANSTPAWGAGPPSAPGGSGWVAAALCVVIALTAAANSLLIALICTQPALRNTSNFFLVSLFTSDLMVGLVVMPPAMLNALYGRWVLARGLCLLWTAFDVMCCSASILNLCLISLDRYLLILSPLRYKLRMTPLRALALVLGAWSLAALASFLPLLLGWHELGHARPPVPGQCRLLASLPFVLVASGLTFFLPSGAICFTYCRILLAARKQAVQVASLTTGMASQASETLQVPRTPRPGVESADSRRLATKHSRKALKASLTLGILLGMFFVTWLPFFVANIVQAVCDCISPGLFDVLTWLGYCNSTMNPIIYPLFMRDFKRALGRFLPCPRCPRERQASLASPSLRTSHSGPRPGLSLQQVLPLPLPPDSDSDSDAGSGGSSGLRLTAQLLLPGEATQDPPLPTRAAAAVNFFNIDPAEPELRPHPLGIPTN

Consider `CC(C)c1ccccc1OCCN1CCC(NS(=O)(=O)c2cccc3ncccc23)CC1`, for which the Ratio Ki in the assay with HEK293 is 33. In addition, the inhibitory constant (Ki) (as a rule, the dissociation constant of the complex between target and ligand, obtained from inhibition or displacement) turned out to be 0.104 µM at D(2) dopamine receptor; 0.232 µM in [1]; 0.233 µM in [3]; 0.007 µM in assay [4]; 0.712 µM in assay [5]. Besides, in assay [2], the inhibition (in general, how much of the control response was suppressed) worked out at 96%. The Activity entry in the assay with Rattus norvegicus was “Dose-dependent effect”.

In the case of `CC(C)c1ccccc1OCCN1CCC(NS(=O)(=O)c2cccc(Cl)c2)CC1`, the Ratio Ki in the assay with HEK293 stood at 22. For the same compound, the Ki in assay [1] came out at 0.178 µM; in [4], 0.008 µM.

For `O=S(=O)(NC1CCN(CCOc2ccccc2-c2ccccc2)CC1)c1ccc(F)cc1`, in the assay on HEK293, the Ratio Ki turned out to be 23. The Ki in assay [1] is 0.159 µM; in assay [4], 0.007 µM.

For `O=S(=O)(NC1CCN(CCOc2ccccc2-c2ccccc2)CC1)c1ccccc1`, the Ratio Ki with HEK293 amounted to 6. The Ki in assay [1] turned out to be 0.279 µM; in assay [4] it was 0.049 µM.

`O=S(=O)(NC1CCN(CCOc2ccccc2-c2ccccc2)CC1)c1cccc2ncccc12`: the Ratio Ki with HEK293 was 13. Moreover, the inhibitory constant (Ki) in [1] was 0.102 µM; in assay [4], 0.008 µM.

As for `O=S(=O)(NC1CCN(CCOc2ccccc2-c2ccccc2)CC1)c1cc(F)ccc1F`, in the assay on HEK293, the Ratio Ki amounted to 26. Also, the figures for the inhibition constant Ki in [1] and in assay [4] were 0.183 µM and 0.007 µM, respectively.

`O=S(=O)(NC1CCN(CCOc2ccccc2-c2ccccc2)CC1)c1cccc(Cl)c1`: the Ratio Ki with HEK293 worked out at 33. Moreover, the inhibition constant (Ki) is 0.085 µM on D(2) dopamine receptor; 0.234 µM in [1]; 0.276 µM in assay [3]; 0.006 µM in assay [4]; 2.019 µM in assay [5]. For the same compound, in assay [2], the inhibition turned out to be 95%. Also, the Activity entry with Rattus norvegicus was “Dose-dependent effect”.

With `O=S(=O)(NC1CCN(CCOc2ccccc2-c2ccccc2)CC1)c1ccc(F)c(F)c1`, the Ratio Ki with HEK293 worked out at 45. Moreover, the Ki in assay [5] was found to be 2.541 µM.

In the case of `O=S(=O)(NC1CCN(CCOc2ccccc2-c2ccccc2)CC1)c1cncc2ccccc12`, the Ratio Ki in the assay on HEK293 worked out at 8. The results for the Ki in assay [1] and in assay [4] were 0.074 µM and 0.009 µM, respectively.

As to `CC(C)c1ccccc1OCCN1CCC(NS(=O)(=O)c2cnn(C)c2)CC1`, the Ratio Ki with HEK293 was determined as 32. Moreover, the Ki on D(2) dopamine receptor was 0.14 µM; in [1], 0.616 µM; in assay [3] it was 0.641 µM; in assay [4], 0.019 µM; in assay [5], 0.389 µM. In [2], the inhibition was 85%.

Take `CC(C)CS(=O)(=O)NC1CCN(CCOc2ccccc2-c2ccccc2)CC1`: the Ratio Ki in the assay with HEK293 worked out at 2. The Ki in assay [1] came to 0.074 µM; in assay [4] it was 0.044 µM.

With `Cn1cc(S(=O)(=O)NC2CCN(CCOc3ccccc3-c3ccccc3)CC2)cn1`, in the assay with HEK293, the Ratio Ki worked out at 17. Moreover, the Ki is 0.321 µM in assay [1] and 0.019 µM in assay [4].

For `CC(C)CS(=O)(=O)NC1CCN(CCOc2ccccc2C(C)C)CC1`, the Ratio Ki in the assay with HEK293 worked out at 1. Also, the Ki in assay [1] came out at 0.278 µM; in [4] it was 0.2 µM.

For `CC(C)c1ccccc1OCCN1CCC(NS(=O)(=O)c2cc(F)ccc2F)CC1`, in the assay with HEK293, the Ratio Ki is 26. Moreover, in the assay with Mus musculus, the result was Active. Moreover, the Ki stood at 0.147 µM on D(2) dopamine receptor; 0.208 µM in assay [1]; 0.324 µM in assay [3]; 0.008 µM in [4]; 0.589 µM in assay [5]. For the same compound, the inhibition in assay [2] turned out to be 84%.

Take `O=S(=O)(NC1CCN(CCOc2ccccc2-c2ccccc2)CC1)c1cccc(F)c1`: in the assay with HEK293, the Ratio Ki stood at 10. For the same compound, the inhibitory constant (Ki) in assay [1] worked out at 0.368 µM; in [4], 0.036 µM.

Take `CC(C)c1ccccc1OCCN1CCC(NS(=O)(=O)c2ccc(Cl)s2)CC1`: the Ratio Ki with HEK293 is 19. Besides, the inhibitory constant (Ki) in [1] turned out to be 0.455 µM; in assay [4], 0.024 µM.

Take `CC(C)c1ccccc1OCCN1CCC(NS(=O)(=O)c2ccccc2)CC1`: the Ratio Ki in the assay with HEK293 is 6. Moreover, the inhibitory constant (Ki) in [1] worked out at 0.249 µM; in assay [4], 0.042 µM.

As for `CC(C)c1ccccc1OCCN1CCC(NS(=O)(=O)c2cncc3ccccc23)CC1`, the Ratio Ki in the assay on HEK293 came to 5. Moreover, the inhibition constant Ki in [1] worked out at 0.103 µM; in assay [4] it was 0.021 µM.

For `O=S(=O)(NC1CCN(CCOc2ccccc2-c2ccccc2)CC1)c1ccc(Cl)s1`, in the assay on HEK293, the Ratio Ki stood at 16. Also, in assay [1], the affinity corresponds to a Ki of 0.19 µM.

`CC(C)c1ccccc1OCCN1CCC(NS(=O)(=O)c2ccc(F)c(F)c2)CC1`: the Ratio Ki with HEK293 was found to be 14. The Ki in assay [1] was found to be 0.373 µM; in assay [4], 0.028 µM.
